Measured values taken from patent US8741589B2, “Monitoring two dimensions of diabetes pathogenesis” (The Regents of the University of California, priority 2005, dated 2014).

What was measured:
pre-diabetes = conditions: metformin therapy, background statement; cited from earlier work
[1] = tested on: models of insulin resistance; assay: Deuterated water production from deuterated glucose in models of insulin resistance, response to insulin-sensitizing therapies; assay type: in vivo; conditions: response to administration of insulin-sensitizing therapies in models of insulin resistance
Source text: Accordingly, the maintenance of normal absolute heavy water production in the face of insulin resistance was highly informative—“normal” heavy water production in this setting represented sufficiency (adequacy) of the pancreatic beta-cell response to the insulin resistance present. […] Full characterization of DM2 susceptibility and progression is thereby enabled through a simple, easily performed and widely usable test.

**Q.** Which results are given for `CN(C)C(=N)N=C(N)N` [metformin]?
**A.** pancreatic insulin secretion (pre-diabetes): improve pancreatic insulin secretion; progression to DM2 (pre-diabetes): prevent progression to DM2; deuterated water production [1]: increased
